We go through two compounds from ChEMBL document CHEMBL4184305, “Inhibition of histone lysine methyltransferases G9a and GLP by ejection of structural Zn(II)” (Bioorg Med Chem Lett, 2018).

The source made the active and inactive calls. The calls are words filed in the database; no cut-off is given here.

The target in assay [1] is T1, Histone-lysine N-methyltransferase EHMT2 (Homo sapiens) (UniProt Q96KQ7).
T1 sequence (whole entry): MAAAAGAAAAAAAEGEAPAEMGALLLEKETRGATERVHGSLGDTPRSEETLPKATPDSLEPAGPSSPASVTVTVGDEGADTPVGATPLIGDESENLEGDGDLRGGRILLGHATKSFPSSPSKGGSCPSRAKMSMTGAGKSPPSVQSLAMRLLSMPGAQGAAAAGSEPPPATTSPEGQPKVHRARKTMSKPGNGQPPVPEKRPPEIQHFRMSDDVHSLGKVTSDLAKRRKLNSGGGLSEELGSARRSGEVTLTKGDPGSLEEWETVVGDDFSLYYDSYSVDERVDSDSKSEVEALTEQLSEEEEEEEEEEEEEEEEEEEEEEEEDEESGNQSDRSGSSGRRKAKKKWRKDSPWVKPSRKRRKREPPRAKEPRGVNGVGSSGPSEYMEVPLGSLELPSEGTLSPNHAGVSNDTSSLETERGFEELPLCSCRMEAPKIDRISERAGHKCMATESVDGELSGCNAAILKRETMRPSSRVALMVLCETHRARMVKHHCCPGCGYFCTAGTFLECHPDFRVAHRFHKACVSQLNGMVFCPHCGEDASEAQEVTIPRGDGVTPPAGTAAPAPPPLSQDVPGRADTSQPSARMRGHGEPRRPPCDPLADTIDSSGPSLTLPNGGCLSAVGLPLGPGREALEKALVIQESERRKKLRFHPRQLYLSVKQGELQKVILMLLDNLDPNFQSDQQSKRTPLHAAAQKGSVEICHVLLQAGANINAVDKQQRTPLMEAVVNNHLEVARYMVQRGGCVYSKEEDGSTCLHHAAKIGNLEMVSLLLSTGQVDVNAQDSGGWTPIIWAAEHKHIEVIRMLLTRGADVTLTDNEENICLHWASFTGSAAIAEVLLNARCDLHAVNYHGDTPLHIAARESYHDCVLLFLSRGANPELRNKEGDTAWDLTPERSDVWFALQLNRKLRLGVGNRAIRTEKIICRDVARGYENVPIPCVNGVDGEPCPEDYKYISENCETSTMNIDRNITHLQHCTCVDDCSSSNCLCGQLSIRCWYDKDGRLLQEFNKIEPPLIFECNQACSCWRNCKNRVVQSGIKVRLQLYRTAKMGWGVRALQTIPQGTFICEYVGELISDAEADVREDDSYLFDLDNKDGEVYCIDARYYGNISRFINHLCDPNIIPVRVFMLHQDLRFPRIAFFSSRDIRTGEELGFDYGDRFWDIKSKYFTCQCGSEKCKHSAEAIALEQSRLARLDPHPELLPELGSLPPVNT
Description: Inhibition of wild type recombinant human histone lysine methyltransferase G9a (913 to 1193 residues) expressed in Escherichia coli Rosetta BL21 DE3 PlysS at 100 uM using ARTKQTARKSTGGKA as substrate preincubated for 5 mins followed by substrate/SAM addition measured after 60 mins by MALDI-TOF MS analysis.

Assay [2] has as its target T2, Histone-lysine N-methyltransferase EHMT1 (Homo sapiens) (UniProt Q9H9B1).
T2 sequence (whole entry): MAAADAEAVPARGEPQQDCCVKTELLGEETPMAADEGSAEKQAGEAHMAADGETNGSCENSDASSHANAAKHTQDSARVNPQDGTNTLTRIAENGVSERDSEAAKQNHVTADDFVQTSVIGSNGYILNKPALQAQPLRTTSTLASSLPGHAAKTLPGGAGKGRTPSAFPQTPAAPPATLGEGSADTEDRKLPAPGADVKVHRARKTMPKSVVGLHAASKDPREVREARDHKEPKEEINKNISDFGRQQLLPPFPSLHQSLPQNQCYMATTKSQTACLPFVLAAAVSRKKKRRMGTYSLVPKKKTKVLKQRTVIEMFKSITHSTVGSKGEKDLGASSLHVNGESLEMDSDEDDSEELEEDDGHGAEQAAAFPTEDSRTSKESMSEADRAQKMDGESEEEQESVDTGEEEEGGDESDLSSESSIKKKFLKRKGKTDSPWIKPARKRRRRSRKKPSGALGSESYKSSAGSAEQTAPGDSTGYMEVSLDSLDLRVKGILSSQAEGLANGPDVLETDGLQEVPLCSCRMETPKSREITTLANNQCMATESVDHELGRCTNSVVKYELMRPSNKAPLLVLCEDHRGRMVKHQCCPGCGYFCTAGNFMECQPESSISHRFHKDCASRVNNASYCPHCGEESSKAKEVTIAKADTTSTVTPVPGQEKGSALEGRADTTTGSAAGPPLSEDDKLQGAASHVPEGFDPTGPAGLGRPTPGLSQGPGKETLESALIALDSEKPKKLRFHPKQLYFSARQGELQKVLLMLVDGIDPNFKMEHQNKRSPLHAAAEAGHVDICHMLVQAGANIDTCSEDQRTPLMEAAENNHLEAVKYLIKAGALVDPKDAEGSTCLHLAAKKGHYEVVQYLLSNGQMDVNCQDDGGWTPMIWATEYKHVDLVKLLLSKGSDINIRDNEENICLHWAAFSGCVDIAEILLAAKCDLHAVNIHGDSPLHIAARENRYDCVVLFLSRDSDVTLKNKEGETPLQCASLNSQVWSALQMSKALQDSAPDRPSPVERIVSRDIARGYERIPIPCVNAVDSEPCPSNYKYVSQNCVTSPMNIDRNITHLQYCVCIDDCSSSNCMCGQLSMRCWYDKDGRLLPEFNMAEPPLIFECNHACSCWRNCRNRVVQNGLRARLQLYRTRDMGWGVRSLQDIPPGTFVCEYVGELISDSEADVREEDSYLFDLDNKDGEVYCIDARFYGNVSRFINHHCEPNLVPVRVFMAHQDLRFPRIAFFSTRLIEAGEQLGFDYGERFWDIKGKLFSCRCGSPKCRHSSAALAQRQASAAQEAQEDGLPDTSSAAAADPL
Nature of the assay: Inhibition of wild type recombinant human histone lysine methyltransferase GLP (951 to 1235 residues) expressed in Escherichia coli Rosetta BL21 DE3 PlysS at 10 uM using ARTKQTARKSTGGKA as substrate preincubated for 5 mins followed by substrate/SAM addition measured after 60 mins by MALDI-TOF MS analysis.

Assay [3] deals with T1, Histone-lysine N-methyltransferase EHMT2 (Homo sapiens). Description: Inhibition of wild type recombinant human histone lysine methyltransferase G9a (913 to 1193 residues) expressed in Escherichia coli Rosetta BL21 DE3 PlysS assessed as zinc ions ejection from Cys4-Zn finger at 100 uM by FluoZin-3 based fluorescence assay.
Assay [4] deals with T2, Histone-lysine N-methyltransferase EHMT1 (Homo sapiens). Description: Inhibition of wild type recombinant human histone lysine methyltransferase GLP (951 to 1235 residues) expressed in Escherichia coli Rosetta BL21 DE3 PlysS assessed as zinc ions ejection from Cys4-Zn finger at 100 uM by FluoZin-3 based fluorescence assay.
The target in assay [5] is T1, Histone-lysine N-methyltransferase EHMT2 (Homo sapiens). Nature of the assay: Inhibition of wild type recombinant human histone lysine methyltransferase G9a (913 to 1193 residues) expressed in Escherichia coli Rosetta BL21 DE3 PlysS at 10 uM using ARTKQTARKSTGGKA as substrate preincubated for 5 mins followed by substrate/SAM addition measured after 60 mins by MALDI-TOF MS analysis.

Regarding `CCN(CC)C(=S)SSC(=S)N(CC)CC`, the inhibition in assay [1] was greater than 50%. Further, the inhibition result in assay [2] and in assay [5] was “inactive” in each case. The inhibition result in assay [3] and in assay [4] was “Active” in each case.
Turning to `O=c1c2ccccc2[se]n1-c1ccccc1` [EBSELEN], in assay [1], the inhibition was greater than 50%. The inhibition result in assay [2] and in assay [5] was “inactive” throughout. Also, the inhibition entry in assay [3] and in assay [4] was “Active” each time.

Broadly, the inhibition is the share of the control response that was lost under treatment.
